Data published in patent US20110245148A1, “ACETIC ACID AND A BUFFER” (priority 2008, published 2011).
Where a name gives a salt, the structure may show the parent alone. Read-outs that look alike come from different tables or passages of the source.

Legend:
P. aeruginosa biofilms = assay: continuous flow chamber biofilm, 3-day-old, harvested and plated for viability; type: cell-based, P. aeruginosa PAO1; details: for eradication of mature biofilm (viability on LB plates): 24 hours
Excerpt: (§1) The wild-type P. aeruginosa PAO1 used for the planktonic and biofilm experiments was obtained from the Pseudomonas Genetic Stock Center (www.pseudomonas.med.ecu.edu, strain PAO0001). The wild-type S. aureus 8325-4, used for planktonic and biofilm experiments was described by Novick, R. P. 1967. For plating, Luria broth (LB) medium mix with 2.0% agar was used. For all experiments including bacterial biofilms, AB minimal medium supplemented with glucose was used except if different is mentioned. […] The continuous flow system is based on once through flow chambers perfused with sterile AB minimal medium containing 0.3 mM glucose as described by Christensen et al. (1999). Continuous flow biofilm tolerance to acetic acid was assessed by growing P. aeruginosa or S. aureus biofilms for three days, then subsequently at day three to four supplementing the AB minimal medium with different concentrations of acetic acid or HCl (HCL served as a as control to acetic acid treatments). […] Due to the buffer capacity of the AB minimal medium used, the pH of the solution became 4.33. […] After the treatment the biofilm biomasses were harvested mechanically from the flow chambers and plated on LB plates for determination of viability. […] The kinetics of antimicrobial activity against mature biofilms was tested by treating a 3-day-old continuous flow chamber biofilms of either P. aeruginosa with 0.5% or S. aureus with 1.0% acetic acid for 24 hours. Due to the buffer capacity of the AB minimal medium used the pH of the solution became 4.33. […] After the treatment the biofilms were harvested mechanically, by scraping with a sterile scalpel, from the flow chambers and plated on LB plates for determination of viable counts.

[1] = system: static P. aeruginosa biofilms; assay: static 24 hour old biofilm in microtiter dishes, CFU after treatment; type: cell-based; details: for antimicrobial effect on biofilm (CFU): 0.5% acetic acid
Excerpt: AB minimal medium without acetic acid adjusted to different pH values was used as control.
AB minimal medium supplemented with increasing concentrations of tobramycin served as control. The biofilm were harvested and plated on LB plates to determine the CFU after treatment (For visual appearance “no growth” is arbitrarily given a CFU value of 2).
AB minimal medium without acetic acid, but supplemented with increasing concentrations of tobramycin served as control.
The wild-type P. aeruginosa PAO1 used for the planktonic and biofilm experiments was obtained from the Pseudomonas Genetic Stock Center (www.pseudomonas.med.ecu.edu, strain PAO0001). The wild-type S. aureus 8325-4, used for planktonic and biofilm experiments was described by Novick, R. P. 1967.
For plating, Luria broth (LB) medium mix with 2.0% agar was used. For all experiments including bacterial biofilms, AB minimal medium supplemented with glucose was used except if different is mentioned.
(§2) The static biofilm setup is based on biofilms growing in microtiter dishes with AB minimal medium containing 0.3 mM glucose as described by O'toole et al (1999). Planktonic cultures were grown in shake flasks at 37° C.
(§3) Static biofilm tolerance to acetic acid was assessed by exchanging the AB minimal medium of 24 h old biofilms with AB minimal medium supplemented with different concentrations of acetic acid or HCl as control. To raise the pH of either acetic acid or HCl, NaOH was added in different concentrations.
(§4) To elucidate a synergistic antimicrobial effect of acetic acid and antibiotics, static biofilms of P. aeruginosa were grown for 24 hours prior to subsequent treatment with increasing concentrations of tobramycin and 0.5% acetic acid in the pH interval 3-6.85. The pH was adjusted by supplementing the AB minimal medium with either HCl or NaOH.

[2] = system: clinical mucoid P. aeruginosa isolate; details: 0.5% acetic acid, pH below 4.76
Protocol: as §2, §3, §4

[3] = system: clinical non-mucoid P. aeruginosa isolate; details: 0.5% acetic acid, pH below 4.76
Protocol: as §2, §3, §4

S. aureus biofilms = details: for eradication of mature biofilm (viability on LB plates): 24 hours
Excerpt: as §1

[4] = 0.5% acetic acid, AB minimal medium, pH 4.33
[5] = 1.0% acetic acid, AB minimal medium, pH 4.33

In the case of `Cl` [HCl, reference compound], the “eradication of mature biofilm (viability on LB plates)” value (P. aeruginosa biofilms; AB minimal medium adjusted to pH 4.33 using HCl) is reported as “no effect”.

With `NC[C@H]1O[C@H](O[C@H]2[C@H](O)[C@@H](O[C@H]3O[C@H](CO)[C@@H](O)[C@H](N)[C@H]3O)[C@H](N)C[C@@H]2N)[C@H](N)C[C@@H]1O` [Tobramycin, tobramycin, reference compound] the “reduction of bacterial viability” value ([1]; tobramycin alone at concentrations above 12.5 μg/ml) was 5 fold.

With `CC(=O)O` [acetic acid] the “effect of acetic acid alone on biofilm” value [1] was “decreasing”, the “antibacterial effect on biofilm (CFU)” value ([1]; 0.5% acetic acid alone, pH 6.85) was “no antibacterial effect” and the “antimicrobial effect on biofilm (CFU)” value ([1]; pH 5) was “reduced effect”. The “antimicrobial effect on biofilm (CFU)” value ([1]; pH 5.5 and above) was “no effect”, the “antimicrobial effect on biofilm (CFU)” value ([1]; pH interval 3-4.76) was “eradicated biofilms” and the “eradication of mature biofilm” value (P. aeruginosa biofilms; 0.5% acetic acid in sterile miliQ water) was “Complete eradication”. For the same molecule, the “eradication of mature biofilm (viability on LB plates)” value (P. aeruginosa biofilms; [4]) was “completely eradicated”, the “time to complete killing of all bacteria” value (P. aeruginosa biofilms; [4]) was 3 h and the “eradication of mature biofilm (viability on LB plates)” value (P. aeruginosa biofilms; [5]) was “completely eradicated”. For the same molecule, the “eradication of biofilm (CFU)” value [2] was “eradicates the biofilms”, the “eradication of biofilm (CFU)” value [3] was “eradicates the biofilms” and the “eradication of mature biofilm (viability on LB plates)” value (S. aureus biofilms; [4]) was “reduced the number of viable cells”. For the same molecule, the “eradication of mature biofilm” value (S. aureus biofilms; 1.0% acetic acid in sterile miliQ water) was “Complete eradication”, the “eradication of mature biofilm (viability on LB plates)” value (S. aureus biofilms; [5]) was “complete eradication” and the “time to complete killing of all bacteria” value (S. aureus biofilms; [5]) was 3 h.
